Here are results for two compounds from patent US10329304B2, “Compounds and methods for inhibition of hedgehog signaling and phosphodiesterase” (Vanderbilt University, priority 2014, dated 2019).

The test system of one data set is panel of 442 kinases. The data set is described as follows: Kinase profiling assays (DiscoverRx, phage display model). The class given is binding. As for the experimental part: Profiling assays were not performed in-house. Compounds were shipped to the following companies for possible target identification: Kinase profiling assays were performed by DiscoverRx (San Diego, Calif.) using a phage display model; GPCR profiling assays were performed by Millipore (St. Louis, Mo.) using in cells expressing Gα15, a promiscuous G protein that enhances GPCR coupling to downstream Ca^2+ signaling pathways; phosphatase profiling assay was performed by Millipore (Dundee, UK).

The test system of a further data set is PDE4 isoforms. The data set is described as follows: In vitro PDE dose-response assays (BPS Biosciences). The class given is biochemical. To be noted: isoforms of PDE4 A-D; read-out: IC50 range over PDE4 isoforms. On the procedure:
In vitro PDE profiling and dose-response assays were performed by BPS Biosciences (San Diego, Calif.). Kinetic Mechanism of inhibition studies were conducted by Millipore (St. Louis, Mo.). In brief, the PDE assay measures fluorescent polarization of FAM-AMP as FAM-cAMP is converted to FAM-AMP by PDE), the binding agent.
A series of dilutions of the test compound were prepared with 10% DMSO in assay buffer and 5 μl of the dilution was added to a 50 μl reaction so that the final concentration of DMSO is 1% in all of reactions. All of the PDE enzymatic reactions were conducted in duplicate at room temperature for 60 minutes in a 50 μl mixture containing PDE assay buffer (10 mM Tris-HCl, pH7.4, 10 mM MaCl2, 0.05% Tween 20), 100 nM FAM-cAMP, a PDE enzyme and a test compound.
After the enzymatic reaction, 100 μl of a binding solution (1:100 dilution of the binding agent, which contains the nano beads that recognize FAM-AMP, with the binding agent diluent) was added to each reaction and the reaction was performed at room temperature for 60 minutes. Fluorescence intensity was measured at an excitation of 485 nm and an emission of 528 nm using a Tecan Infinite M1000 microplate reader. Assays done by Millipore were conducted similarly with changes noted below: […]

Another data set has as its target T1, PDE10A2 (Homo sapiens, UniProt Q9Y233).
T1 construct: purchased BPS Biosciences (San Diego, Calif.)
The data set is described as follows: In vitro PDE assay. The class given is biochemical. Put shortly:
(§1)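 Fluorescence polarization readout: FAM-AMP formed from 100 nM FAM-cAMP binds nano-bead agent (60 min) and is read at ex 485/em 528 nm. Enzyme reactions ran 60 min at room temperature in duplicate, Tris-HCl pH 7.4 buffer with 10 mM MgCl2 and 0.05% Tween 20, compound in 1% final DMSO.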

Another data set concerns the target T2, PDE1A1 (Homo sapiens, UniProt P54750).
T2 construct: purchased BPS Biosciences (San Diego, Calif.)
The data set is described as follows: In vitro PDE assay. The class given is biochemical. Put shortly: as §1

Another data set deals with T3, PDE2A (Homo sapiens, UniProt O00408).
T3 construct: purchased BPS Biosciences (San Diego, Calif.)
T3 sequence (O00408 whole entry): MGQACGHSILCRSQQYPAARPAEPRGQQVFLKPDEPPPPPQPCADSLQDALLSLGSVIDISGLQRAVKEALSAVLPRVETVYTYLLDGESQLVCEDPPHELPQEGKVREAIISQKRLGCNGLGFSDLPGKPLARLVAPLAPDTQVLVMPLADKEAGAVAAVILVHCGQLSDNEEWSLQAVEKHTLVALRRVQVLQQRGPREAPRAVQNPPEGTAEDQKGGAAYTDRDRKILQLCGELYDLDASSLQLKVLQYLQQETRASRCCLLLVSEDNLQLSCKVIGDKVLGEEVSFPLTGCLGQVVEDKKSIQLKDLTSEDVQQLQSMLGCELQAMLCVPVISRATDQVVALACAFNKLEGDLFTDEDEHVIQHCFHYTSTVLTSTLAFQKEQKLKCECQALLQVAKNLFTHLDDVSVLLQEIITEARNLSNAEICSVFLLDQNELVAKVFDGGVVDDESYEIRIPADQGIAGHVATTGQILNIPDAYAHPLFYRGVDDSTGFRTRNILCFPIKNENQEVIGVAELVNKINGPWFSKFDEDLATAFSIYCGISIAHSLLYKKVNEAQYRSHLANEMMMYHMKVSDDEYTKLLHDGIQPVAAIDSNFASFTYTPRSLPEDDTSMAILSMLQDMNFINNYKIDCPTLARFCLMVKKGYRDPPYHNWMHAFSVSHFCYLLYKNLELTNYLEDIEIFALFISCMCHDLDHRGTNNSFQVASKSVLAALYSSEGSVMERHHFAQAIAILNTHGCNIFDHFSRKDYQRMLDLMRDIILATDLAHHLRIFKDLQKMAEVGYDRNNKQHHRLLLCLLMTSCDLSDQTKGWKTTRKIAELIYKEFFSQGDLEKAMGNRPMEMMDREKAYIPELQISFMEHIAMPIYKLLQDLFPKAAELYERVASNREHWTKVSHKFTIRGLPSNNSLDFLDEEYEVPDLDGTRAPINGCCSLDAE
The data set is described as follows: In vitro PDE assay. The class given is biochemical. Put shortly: as §1

Another data set has as its target T4, PDE3A (Homo sapiens, UniProt Q14432).
T4 construct: purchased BPS Biosciences (San Diego, Calif.)
The data set is described as follows: In vitro PDE assay. The class given is biochemical. An outline of the steps: as §1

The target in the next data set is T5, PDE5A1 (Homo sapiens, UniProt O76074).
T5 construct: purchased BPS Biosciences (San Diego, Calif.)
The data set is described as follows: In vitro PDE assay. The class given is biochemical. An outline of the steps:
as §1

The target of another data set is T6, PDE6C (Homo sapiens, UniProt P51160).
T6 construct: purchased BPS Biosciences (San Diego, Calif.)
T6 sequence (P51160 whole entry): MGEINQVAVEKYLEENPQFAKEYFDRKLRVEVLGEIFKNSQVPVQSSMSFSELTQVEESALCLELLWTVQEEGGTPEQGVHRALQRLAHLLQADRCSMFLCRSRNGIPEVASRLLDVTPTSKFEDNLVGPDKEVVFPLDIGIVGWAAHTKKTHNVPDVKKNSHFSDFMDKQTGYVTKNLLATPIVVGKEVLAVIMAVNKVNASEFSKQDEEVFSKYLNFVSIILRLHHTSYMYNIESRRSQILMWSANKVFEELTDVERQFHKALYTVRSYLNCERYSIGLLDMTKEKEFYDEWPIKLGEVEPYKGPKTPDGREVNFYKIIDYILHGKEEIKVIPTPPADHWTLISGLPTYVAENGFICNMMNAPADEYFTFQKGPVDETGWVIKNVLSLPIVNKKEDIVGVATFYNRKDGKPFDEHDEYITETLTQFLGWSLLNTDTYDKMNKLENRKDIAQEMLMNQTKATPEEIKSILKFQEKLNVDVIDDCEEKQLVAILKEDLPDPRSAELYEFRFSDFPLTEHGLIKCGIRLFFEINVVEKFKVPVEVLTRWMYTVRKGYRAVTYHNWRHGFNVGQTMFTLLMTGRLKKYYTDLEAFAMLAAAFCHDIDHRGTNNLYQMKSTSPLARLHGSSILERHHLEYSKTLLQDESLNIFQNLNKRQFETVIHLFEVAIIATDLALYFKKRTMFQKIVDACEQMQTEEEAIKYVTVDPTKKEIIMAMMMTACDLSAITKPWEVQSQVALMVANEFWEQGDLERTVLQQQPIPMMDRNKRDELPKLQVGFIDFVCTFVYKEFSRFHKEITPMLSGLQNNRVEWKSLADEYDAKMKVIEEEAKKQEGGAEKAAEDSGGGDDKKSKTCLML
The data set is described as follows: In vitro PDE assay. The class given is biochemical. An outline of the steps:
as §1

The target of a further data set is T7, PDE9A1 (Homo sapiens, UniProt O76083).
T7 construct: purchased BPS Biosciences (San Diego, Calif.)
T7 sequence (O76083 whole entry): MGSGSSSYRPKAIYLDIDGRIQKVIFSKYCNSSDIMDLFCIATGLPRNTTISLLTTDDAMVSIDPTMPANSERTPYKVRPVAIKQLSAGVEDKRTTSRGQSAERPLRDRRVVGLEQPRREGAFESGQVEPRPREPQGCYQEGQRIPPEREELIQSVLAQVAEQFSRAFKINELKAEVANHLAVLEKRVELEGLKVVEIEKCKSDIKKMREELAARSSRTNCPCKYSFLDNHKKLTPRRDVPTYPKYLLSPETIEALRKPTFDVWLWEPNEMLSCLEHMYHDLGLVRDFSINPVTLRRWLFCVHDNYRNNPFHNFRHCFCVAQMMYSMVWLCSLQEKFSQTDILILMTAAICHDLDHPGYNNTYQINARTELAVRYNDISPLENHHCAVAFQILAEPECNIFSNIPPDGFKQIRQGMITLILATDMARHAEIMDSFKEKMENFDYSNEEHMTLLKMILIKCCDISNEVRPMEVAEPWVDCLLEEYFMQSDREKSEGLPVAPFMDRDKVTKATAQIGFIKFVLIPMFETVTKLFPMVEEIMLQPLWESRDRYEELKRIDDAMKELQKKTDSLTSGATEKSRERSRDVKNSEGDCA
The data set is described as follows: In vitro PDE assay. The class given is biochemical. Put shortly: as §1

For a further data set, the system named is NIH3T3 cells. The data set is described as follows: Cell viability of parental NIH3T3 cells. The class given is cell-based.
Data set [1] has as its system Bovine Viral Diarrhea Virus. The data set is described as follows: BVDV CPE assay. The class given is cell-based. On the procedure: Provided in FIG. 37 are the results from BVDV (Bovine Viral Diarrhea Virus, surrogate for Hepatitis C virus) CPE ([…]) testing done. The assay was repeated with […] (a PDE4B and PDE4D inhibitor). Hi913 (our prototypic PDE4 inhibitor) was tested in half-log concentrations ranging from 100 μM to 0.33 μM. As the stock solution of […] was 10 mM, this meant that the final DMSO concentrations for the highest Hi913 concentrations were 1%, 0.33%, and 0.1%. The normal final DMSO concentrations used is 0.1%, so additional DMSO controls of 1% and 0.33% were included. The Hi913 data for the highest 3 concentrations is normalized to the respective DMSO concentrations. […] The outlier effects at 100 μM are probably due to cytotoxicity at the high drug concentration.

Data set [2] relates to RSV (respiratory syncytial virus). The data set is described as follows: RSV CPE / plaque assay in HEp-2 cells. The class given is cell-based. As for the experimental part:
In Table 11, the results of CPE assays following infection of human epidermoid cancer cells (HEp-2) with RSV. Even at 10,000 higher viral titers, our compound achieved complete inhibition at 10 μM. At 1 and 3 μM, the compound achieved over 98% reduction. The exemplary compound alone caused no apparent cytotoxicity at these concentrations.

The test system of a further data set is cAMP. The data set is described as follows: FRET-based cAMP sensors in NIH3T3 cells. The class given is cell-based. To be noted: 2 μM. The source says: To visualize changes in cAMP concentrations in individual cells and cellular regions, we utilized two distinct FRET (fluorescence resonance energy transfer)-based cAMP sensors: the Epac-FRET sensor (mTurquoiseΔ-Epac(CD, ΔDEP)-cp173 Venus-Venus)^35, which detects cytosolic cAMP concentration and the PKA-based cAMP sensor (PKAC-YFP and PKARII-CFP combination), which has been used to document changes in local cAMP levels in the centrosome and basal body.

The subject of a further data set is Dengue. The data set is described as follows: Dengue viral CPE assay. The class given is cell-based. From the text: The small molecule PDE4 inhibitors of the presently disclosed subject matter are actively anti-viral in viral CPE (cytopathic effect) assays versus RSV (respiratory syncytial virus), Dengue (1 experiment), and BVDV (bovine viral diarrhea virus, surrogate for human hepatitis C virus). Of note, PDE4 inhibitors are now approved for COPD, for which RSV may be an exacerbating factor).

The next data set relates to Influenza. The data set is described as follows: Influenza antiviral effect. The class given is cell-based.
In another data set the test system is hiPSC-CMs. The data set is described as follows: Contractile function of hiPSC-derived cardiomyocytes. The class given is cell-based, human.
The test system of a further data set is mouse aorta. The data set is described as follows: Myography of cannulated mouse aorta. To be noted: listed as Egm. The source says: For myography, to test the vascular tone for presense of downstream or off target effects, mouse aorta was mounted and cannulated on a closed system. A physiological buffer (with respect to pH, CO2, and temperature) was circulated through the vessel.

The next data set relates to Daoy cells. The data set is described as follows: Daoy cell proliferation (PH3 staining) and apoptosis (TUNEL). The class given is cell-based, human. To be noted: 10 μM, 48-hours.
A further data set concerns mouse cardiomyocytes. The data set is described as follows: Calcium handling in isolated mouse cardiomyocytes. The class given is cell-based. To be noted: 10 μM. From the text:
To observe whether the effects of eggmanone administration are cardiomyocyte specific or due to off target effects, the contractility of individual mouse cardiomyocytes and the tone of ascending/descending aorta was observed. In mouse cardiomyocytes, Egm caused a 50% increase in contractility over vehicle control (FIG. 32).

The test system of a further data set is RSV. The data set is described as follows: RSV infection in mice (body weight, lung plaque assay). To be noted: 20 mg/kg IP 3× daily.

Several values for one entry are separate records, joined by “and”; a condition that tells them apart may be missing. Equal values may be shown once. Entries after “also recorded” stand apart in the source; their conditions may differ.

T4 sequence (Q14432 whole entry): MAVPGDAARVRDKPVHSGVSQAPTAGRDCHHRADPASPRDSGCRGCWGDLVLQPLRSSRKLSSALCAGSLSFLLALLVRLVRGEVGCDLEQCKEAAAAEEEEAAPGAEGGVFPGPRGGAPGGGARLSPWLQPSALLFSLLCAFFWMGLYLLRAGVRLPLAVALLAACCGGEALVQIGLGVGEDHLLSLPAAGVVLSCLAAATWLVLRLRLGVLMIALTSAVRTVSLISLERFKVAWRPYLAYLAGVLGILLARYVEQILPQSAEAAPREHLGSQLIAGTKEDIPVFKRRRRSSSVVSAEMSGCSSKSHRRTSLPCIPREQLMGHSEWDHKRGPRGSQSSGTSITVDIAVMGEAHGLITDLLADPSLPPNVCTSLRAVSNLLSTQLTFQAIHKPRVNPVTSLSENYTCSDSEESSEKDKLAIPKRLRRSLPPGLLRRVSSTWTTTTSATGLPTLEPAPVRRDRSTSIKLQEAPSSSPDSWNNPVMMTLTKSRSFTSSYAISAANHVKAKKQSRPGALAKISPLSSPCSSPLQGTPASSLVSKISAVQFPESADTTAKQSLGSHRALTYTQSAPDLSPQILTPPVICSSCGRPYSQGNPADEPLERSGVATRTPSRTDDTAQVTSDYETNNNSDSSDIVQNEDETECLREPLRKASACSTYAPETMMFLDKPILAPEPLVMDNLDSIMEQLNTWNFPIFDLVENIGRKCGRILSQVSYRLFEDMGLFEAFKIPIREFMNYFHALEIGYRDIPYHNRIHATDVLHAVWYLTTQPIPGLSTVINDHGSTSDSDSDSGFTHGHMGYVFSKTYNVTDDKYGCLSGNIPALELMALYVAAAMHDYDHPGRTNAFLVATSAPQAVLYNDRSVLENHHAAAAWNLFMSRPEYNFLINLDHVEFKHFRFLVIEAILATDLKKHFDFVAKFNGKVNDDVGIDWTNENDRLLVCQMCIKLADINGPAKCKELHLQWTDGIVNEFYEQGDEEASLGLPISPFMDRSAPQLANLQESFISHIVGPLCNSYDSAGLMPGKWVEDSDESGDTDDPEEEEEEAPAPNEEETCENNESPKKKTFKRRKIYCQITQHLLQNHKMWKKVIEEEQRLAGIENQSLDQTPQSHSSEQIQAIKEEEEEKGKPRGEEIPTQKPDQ
T1 sequence (Q9Y233 267-1055): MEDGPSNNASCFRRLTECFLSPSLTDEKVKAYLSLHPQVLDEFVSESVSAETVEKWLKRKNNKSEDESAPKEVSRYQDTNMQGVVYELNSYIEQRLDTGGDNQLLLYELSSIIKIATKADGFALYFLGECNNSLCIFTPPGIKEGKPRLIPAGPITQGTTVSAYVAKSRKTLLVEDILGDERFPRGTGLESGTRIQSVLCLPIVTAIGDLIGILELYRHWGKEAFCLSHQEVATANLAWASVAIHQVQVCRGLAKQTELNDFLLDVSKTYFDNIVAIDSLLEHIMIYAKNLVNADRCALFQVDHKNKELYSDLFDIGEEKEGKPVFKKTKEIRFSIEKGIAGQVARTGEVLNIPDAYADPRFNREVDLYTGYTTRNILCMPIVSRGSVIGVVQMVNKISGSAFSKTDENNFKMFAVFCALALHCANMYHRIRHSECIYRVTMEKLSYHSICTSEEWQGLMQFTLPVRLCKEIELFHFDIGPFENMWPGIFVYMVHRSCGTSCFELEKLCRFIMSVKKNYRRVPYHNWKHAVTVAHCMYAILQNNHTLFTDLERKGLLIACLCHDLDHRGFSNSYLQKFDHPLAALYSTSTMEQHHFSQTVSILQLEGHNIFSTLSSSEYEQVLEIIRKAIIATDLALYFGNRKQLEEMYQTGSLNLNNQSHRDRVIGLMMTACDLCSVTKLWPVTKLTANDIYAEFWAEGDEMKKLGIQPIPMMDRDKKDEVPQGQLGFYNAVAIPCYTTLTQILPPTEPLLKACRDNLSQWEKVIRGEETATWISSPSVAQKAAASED
T2 sequence (P54750 1-529 isoform P54750-6): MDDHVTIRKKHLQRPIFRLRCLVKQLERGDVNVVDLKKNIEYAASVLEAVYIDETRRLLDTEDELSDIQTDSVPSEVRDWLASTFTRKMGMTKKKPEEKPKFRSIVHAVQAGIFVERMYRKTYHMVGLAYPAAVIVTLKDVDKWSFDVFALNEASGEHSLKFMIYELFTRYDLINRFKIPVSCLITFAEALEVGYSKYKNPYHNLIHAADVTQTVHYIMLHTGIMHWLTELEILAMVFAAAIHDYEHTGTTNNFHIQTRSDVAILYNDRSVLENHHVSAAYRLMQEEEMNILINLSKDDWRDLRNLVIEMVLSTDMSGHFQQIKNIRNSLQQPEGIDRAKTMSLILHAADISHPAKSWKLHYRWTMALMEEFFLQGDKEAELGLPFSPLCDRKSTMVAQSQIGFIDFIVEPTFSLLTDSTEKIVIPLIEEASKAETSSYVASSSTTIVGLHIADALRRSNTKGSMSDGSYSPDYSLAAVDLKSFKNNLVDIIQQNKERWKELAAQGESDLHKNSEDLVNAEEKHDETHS

`C=C(C)Cn1c(SCC(=O)c2cccs2)nc2sc3c(c2c1=O)CCCC3` [Eggmanone, 3-(2-methylallyl)-2-((2-oxo-2-(thiophen-2-yl)ethyl)thio)-5,6,7,8-tetrahydrobenzo[4,5]thieno[2,3-d]pyrimidine-4(3H)-one]: in the data set with panel of 442 kinases, the “agonist or antagonist activity” value is listed as “did not exhibit significant agonist or antagonist activity”. This compound came in with a significant inhibition in the data set with panel of 442 kinases of over 10 µM. Moreover, the IC50 (usually the point on the concentration scale where inhibition reaches its midpoint) is 0.8 to 3 µM and 0.8 to 3.75 µM in the data set with PDE4 isoforms; over 50 µM at PDE2A; over 50 µM on PDE3A. Moreover, the inhibition at 50 µM against PDE10A2, against PDE1A1, against PDE5A1, against PDE6C and against PDE9A1 was under 10% each time. Also, the “Viability of NIH3T3 cells” value in the data set with NIH3T3 cells is reported as “had no effect on parental NIH3T3 cells”. The “Antiviral effect on BVDV” value in data set [1] is reported as “has antiviral effects”. Moreover, the “Antiviral effect on RSV” value in [2] is “has antiviral effects”. The “Cytosolic FRET signal (Epac-FRET sensor)” value in the data set on cAMP is on record as “had no effect on the cytosolic FRET signal”. In addition, the “cAMP levels by PKA-based cAMP sensor” value with cAMP is given as “increased cAMP levels only at discrete regions”. For the same compound, the “Antiviral effect on Dengue” value with Dengue is recorded as “has antiviral effects”. The “Antiviral effect on Influenza” value in the data set on Influenza was “has antiviral effects”.
For the compound `C=C(C)Cn1c(SCC(=O)c2cccs2)nc2sc3c(c2c1=O)CCCC3` [EGM, Eggmanone], the Contractile function entry in the data set on hiPSC-CMs is listed as “increased contractile function”. Moreover, in the data set with mouse aorta, the “Vessel diameter after pre-constriction” value is listed as “little to no contraction or dilation of the vessel; also recorded: had no effect on the vessel”. In addition, in the data set with Daoy cells, the “Apoptosis (TUNEL staining)” value was “increased apoptosis” and the “Cell proliferation (phospho-histone H3 staining)” value is listed as “decreased cell proliferation”. Also, the Calcium handling result with mouse cardiomyocytes is “not associated with alterations in calcium handling”. In addition, in the data set with RSV, the Normalized body weight result is given as “slightly lower than that with control”. In addition, the “Lung viral titer (plaque assay)” value in the data set with RSV (day 3) is on record as “significantly reduced viral titer at day 3”.
